Measured values: patent publication US20190274334A1 (MARS, INCORPORATED, priority 2016, published 2019)
Read-outs that look alike come from different tables or passages of the source.

Target: feline CaSR (f:CaSR) (Felis catus, UniProt A0ABI7YY68)
Test: cell-based
Assay type: cell-based
[1] = agonist mode, read-out: EC50 (Agonist)
[2] = double-injection protocol, agonist mode and PAM mode
[3] = PAM mode, CaCl2 injected at EC20, read-out: EC50 (PAM)

Chain of feline CaSR (f:CaSR) (A0ABI7YY68 entry or part of it): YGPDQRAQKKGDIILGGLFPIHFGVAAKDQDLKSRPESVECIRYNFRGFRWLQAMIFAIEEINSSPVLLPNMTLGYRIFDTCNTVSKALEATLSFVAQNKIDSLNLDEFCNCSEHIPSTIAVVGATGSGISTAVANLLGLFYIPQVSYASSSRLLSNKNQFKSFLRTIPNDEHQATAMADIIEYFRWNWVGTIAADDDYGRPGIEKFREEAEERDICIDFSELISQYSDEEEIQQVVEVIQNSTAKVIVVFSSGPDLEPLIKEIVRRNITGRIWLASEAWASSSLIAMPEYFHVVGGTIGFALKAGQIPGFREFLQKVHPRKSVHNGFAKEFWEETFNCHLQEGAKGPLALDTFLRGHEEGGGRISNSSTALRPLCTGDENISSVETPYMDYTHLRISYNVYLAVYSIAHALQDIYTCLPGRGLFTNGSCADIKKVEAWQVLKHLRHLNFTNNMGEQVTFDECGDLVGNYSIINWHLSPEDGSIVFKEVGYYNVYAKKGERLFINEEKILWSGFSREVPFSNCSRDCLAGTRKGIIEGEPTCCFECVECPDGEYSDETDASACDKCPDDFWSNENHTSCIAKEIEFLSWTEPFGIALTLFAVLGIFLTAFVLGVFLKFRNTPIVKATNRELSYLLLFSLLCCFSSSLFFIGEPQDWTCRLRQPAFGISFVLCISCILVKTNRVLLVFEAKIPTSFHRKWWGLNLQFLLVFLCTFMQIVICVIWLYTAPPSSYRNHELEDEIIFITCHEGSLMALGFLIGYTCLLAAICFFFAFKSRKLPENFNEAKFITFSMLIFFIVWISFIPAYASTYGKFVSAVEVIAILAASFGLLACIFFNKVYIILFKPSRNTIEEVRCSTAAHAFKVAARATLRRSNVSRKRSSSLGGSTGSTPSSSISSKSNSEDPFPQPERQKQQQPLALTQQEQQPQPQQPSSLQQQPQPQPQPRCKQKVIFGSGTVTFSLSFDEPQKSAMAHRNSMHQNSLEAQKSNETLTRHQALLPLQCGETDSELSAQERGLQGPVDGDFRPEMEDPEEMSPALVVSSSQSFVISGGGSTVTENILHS

Compound: COC(=O)C(N)CC(=O)O (racemic) [DL-Aspartic acid alpha-methyl ester]
- Activity Type: Agonist

Compound: CNC(C)[C@@H]1CC[C@@H](N)[C@@H](O[C@H]2[C@H](O)[C@@H](O[C@H]3OC[C@](C)(O)[C@H](NC)[C@H]3O)[C@H](N)C[C@@H]2N)O1 (stereo partly drawn) [Gentamicin, reference compound]
- EC50 [1]: 990 µM
- Activity Type [2]: Agonist

Compound: CN[C@@H]1[C@@H](O)[C@@H](O[C@@H]2[C@@H](O)[C@H](O[C@H]3OC(CN)=CC[C@H]3N)[C@@H](N)C[C@H]2N)OC[C@]1(C)O [Sisomicin, reference compound]
- Activity Type [2]: Agonist

Compound: COc1ccccc1C(CCNC(C)c1ccc(Cl)cc1)c1ccco1 (stereo not drawn) [N-(1-(4-chlorophenyl)ethyl)-3-(furan-2-yl)-3-(2-methoxyphenyl)propan-1-amine]
- EC50 [3]: 1.41 µM
- Activity Type [2]: PAM

Compound: CC(C)Oc1ccc(C(CCNC(C)c2ccc(Cl)cc2)C(C)C)cc1 (stereo not drawn) [N-(1-(4-chlorophenyl)ethyl)-3-(4-isopropoxyphenyl)-4-methylpentan-1-amine]
- EC50 [3]: 135 µM
- Activity Type [2]: PAM

Compound: N[C@@H](CC(=O)N[C@@H](Cc1ccccc1)C(=O)O)C(=O)O [H-Asp(Phe-OH)—OH]
- Activity Type [2]: Agonist

Compound: NC(=O)[C@@H](N)CCC(=O)O [L-Isoglutamine]
- Activity Type [2]: Agonist

Compound: Poly-L-arginine
- Activity Type: Agonist EC50 1.01 uM
- EC50 (read-out: EC50 (Agonist)): 1.01 µM

Compound: [Ba] [Barium]
- EC50 [1]: 1170 µM
- Activity Type [2]: Agonist

Compound: [Gd] [Gadolinium]
- EC50 [1]: 295 µM
- Activity Type [2]: Agonist

Compound: N[C@@H](CCP(=O)(O)O)C(=O)O (stereo in doubt) [2-Amino-4-phosphonobutyric acid]
- Activity Type [2]: Agonist

Compound: C[C@@H](NCc1cc2ccccc2[nH]1)c1cccc2ccccc12 [Calindol, reference compound]
- Activity Type [2]: PAM

Compound: CC(C)C[C@H](NC(=O)CC[C@H](N)C(=O)O)C(=O)O [H-Glu(Leu-OH)—OH]
- Activity Type [2]: Agonist

Compound: CC(C)Oc1ccc(C(CCNC(C)c2ccc(Cl)cc2)c2ccccc2)cc1 (stereo not drawn) [N-(1-(4-chlorophenyl)ethyl)-3-(4-isopropoxyphenyl)-3-phenylpropan-1-amine]
- EC50 [3]: 4.49 µM
- Activity Type [2]: PAM

Compound: COC(=O)C[C@H](N)C(=O)O [L-Aspartic acid beta-methyl ester]
- Activity Type [2]: Agonist

Compound: C[Se]C[C@H](N)C(=O)O [Se-(Methyl)selenocysteine]
- EC50 [1]: 4470 µM
- Activity Type [2]: Agonist

Compound: NC(=O)CC[C@H](NC(=O)CC[C@H](NC(=O)CC[C@H](N)C(=O)O)C(=O)O)C(=O)O [H-Glu(Glu(Gln-OH)—OH)—OH]
- Activity Type [2]: Agonist

Compound: NC[C@H]1O[C@H](O[C@H]2[C@H](O[C@@H]3O[C@H](CO)[C@@H](O)[C@H]3O)[C@@H](O)[C@H](N)C[C@@H]2N)[C@H](N)[C@@H](O)[C@@H]1O [Ribostamycin, reference compound]
- Activity Type [2]: Agonist

Compound: N[C@@H](CC(=O)NCC(=O)O)C(=O)O [H-Asp(Gly-OH)—OH]
- Activity Type [2]: Agonist

Compound: CC(C)CCC(CCNC(C)c1ccc(Cl)cc1)c1ccc(OC(C)C)cc1 (stereo not drawn) [N-(1-(4-chlorophenyl)ethyl)-3-(4-isopropoxyphenyl)-6-methylheptan-1-amine]
- EC50 [3]: 172 µM
- Activity Type [2]: PAM

Compound: Cc1ccc(C(C)NC(C)c2cc3ccccc3[nH]2)cc1C (stereo not drawn) [N-(1-(1H-indol-2-yl)ethyl)-1-(3,4-dimethylphenyl)ethanamine]
- Activity Type [2]: PAM

Compound: CC(NCCC(c1ccccc1)C1CCOC(C)(C)C1)c1ccccc1 (stereo not drawn) [3-(2,2-dimethyltetrahydro-2H-pyran-4-yl)-3-phenyl-N-(1-phenylethyl)propan-1-amine]
- EC50 [3]: 0.988 µM
- Activity Type [2]: PAM

Compound: NC(CCC(=O)NC(Cc1c[nH]c2ccccc12)C(=O)O)C(=O)O [γ-D-Glu-Trp, H-gamma-D-Glu-Trp-OH]
- EC50 [1]: 4200 µM
- Activity Type [2]: Agonist

Compound: Cc1ccc(C(CCNC(C)c2ccc(Cl)cc2)c2ccco2)cc1 (stereo not drawn) [N-(1-(4-chlorophenyl)ethyl)-3-(furan-2-yl)-3-(p-tolyl)propan-1-amine]
- EC50 [3]: 3.68 µM
- Activity Type [2]: PAM
